Columns and labels:
[1] = tested on: purified bovine brain tubulin; test: Tubulin polymerization (optical density at 350 nm); type: biochemical; design: key to Purified tubulin polymerization by 10 μM / Purified tubulin polymerization at 10 μM: −: no effect; +/−: minimal or questionable effect; +: weak effect; ++: strong effect; +++: very strong effect equivalent to discodermolide; conditions: 10 μM compound; for Maximum polymerization relative to that induced by discodermolide / Purified tubulin polymerization by 10 μM / Purified tubulin polymerization at 10 μM: 1 mg/mL tubulin; for Purified tubulin polymerization by 10 μM / Purified tubulin polymerization at 10 μM: subjective rating; for Purified tubulin polymerization by 10 μM: Table 11; for Purified tubulin polymerization at 10 μM: Table 12
Description: (§1) Compounds were tested at 10 μM with 1 mg/mL tubulin. The temperature was varied during the course of the experiment as follows: the experiment was begun with an initial temperature of 4° C. and held for 1 minute; the temperature was then increased to 35° C. at a rate of 1° C./minute, held at 35° C. for 1 minute, decreased to 4° C. at a rate of 2° C/minute, and finally held at 4° C. for 14 minutes. The curves shown are for compounds: discodermolide (I); 2-desmethyldiscodermolide (II); 19-desaminocarbonyldiscodermolide (III); 2-epidiscodermolide (IV); and 3-deoxy-2A-discodermolide (VI).
as §1, with “C./minute,” for “C/minute,”, “for” for “for compounds:”, “8,21,23-hexahydrodiscodermolide (XII)” for “2-desmethyldiscodermolide (II); 19-desaminocarbonyldiscodermolide (III); 2-epidiscodermolide (IV);”, “7-deoxy-8,21,23-hexahydrodiscodermolide (XIII).” for “3-deoxy-2A-discodermolide (VI).”
Polymerization of purified bovine brain tubulin (Cytoskeleton Inc., Denver, Colo.) was followed by changes in the optical density of tubulin solutions at 350 nm in a Hitachi U-3010 spectrophotometer equipped with a SPR-10 electronic thermostatted cell holder. Stock solutions of tubulin were diluted on ice in G-PEM buffer (1 mM GTP, 80 mM PIPES, 1 mM EGTA, 0.5 mM magnesium chloride; pH 6.8) to a final concentration of 1 mg/mL. The instrument was zeroed on this solution at 4° C. Discodermolide, and its analogs, were then added to the tubulin solution to a final concentration of 10 μM, quickly mixed, and the absorbance monitored over a period of 61 minutes. Within this time the temperature of the thermoelectric cell holder was held at 4° C. for 1 minute, increased to 35° C. at a rate of 1° C./minute, reduced back to 4° C. at a rate of 2° C./minute, and held at 4° C. for an additional 14 minutes.

[2] = tested on: A549 human adenocarcinoma tumor cells; test: Microtubule bundling patterns in tumor cells by immunofluorescence; type: cell-based; design: key to Microtubule bundling in A549 cells: −: no effect; +/−: minimal or questionable effect; +: weak effect; ++: strong effect; +++: very strong effect equivalent to discodermolide; conditions: for Microtubule bundling in A549 cells: subjective rating versus discodermolide
Description: Discodermolide and discodermolide analogs were evaluated as to their effects on the morphology of the microtubule network of cells using mouse anti-alpha-tubulin monoclonal antibody.
On day one, 7×10^4 adherent A549 human adenocarcinoma tumor cells were cultured in TCM overnight at 37° C. in 5% CO2 on 22 mm^2 cover slips in 6-well microtiter plates. On day two, TCM was removed and replaced with 10-1000 nM discodermolide or analog in TCM or TCM without drug (control) and incubated overnight at 37° C. in 5% CO2. On day three, TCM was removed and cells attached to cover slips were fixed with a 3.7% formaldehyde solution in Dulbecco's PBS for 10 minutes at room temperature. Cells were permeabilized with a 2% Triton X-100 solution, 2 mL per well, for 5 minutes at room temperature and washed twice in Dulbecco's PBS prior to staining.
To each well containing cells attached to cover slips a 2 mL volume of mouse anti- alpha-tubulin monoclonal antibody (Cat# T-5168, Sigma Chemical Co., St. Louis, Mo.) diluted 1:1000 in Dulbecco's phosphate buffered saline (D-PBS) was added and the cells incubated at room temperature for 45 minutes. Cover slips were rinsed once with D-PBS. A 2 mL volume of goat-anti-mouse-IgG-FITC conjugated antibody (Cat# T-5262, Sigma Chemical Co., St. Louis, Mo.) diluted 1:1000 in D-PBS was added and the cells incubated at room temperature for 45 minutes. Cover slips were rinsed once in D-PBS and DNA was stained with 0.02 mg/mL propidium iodide together with 0.1 mg/mL of ribonuclease A (RNAse) A in D-PBS at 37° C. for 30 minutes. Cover slips were rinsed three times with sterile distilled water, air-dried and mounted on slides with SlowFade™ antifade solution (Molecular Probes, Eugene, Oreg.) and observed under the microscope using epifluorescence illumination for the presence of abnormal aster and microtubule bundle formations.

| Compound | Level of tubulin polymerization induced [1] | Stability of polymerized tubulin when held at 4° C. [1] | Maximum polymerization relative to that induced by discodermolide [1] | Purified tubulin polymerization by 10 μM [1] | Microtubule bundling observation ([2]; 100 nM) | Microtubule bundling observation ([2]; 1000 nM) | Discodermolide concentration giving equivalent morphological changes ([2]; analog at 100 nM) | Discodermolide concentration giving equivalent morphological changes ([2]; analog at 1000 nM) | Microtubule bundling in A549 cells ([2]; Table 11) | Purified tubulin polymerization at 10 μM [1] | Microtubule bundling observation ([2]; 10 nM) | Microtubule bundling in A549 cells ([2]; Table 12) | Cells with multiple aster formations, share of the population undergoing mitosis ([2]; 100 nM) |
| --- | --- | --- | --- | --- | --- | --- | --- | --- | --- | --- | --- | --- | --- |
| C=CC=CC(C)C(O)C(C)C(O)C(C)CC(C)=CC(C)C(O)C(C)C=CC(O)CC1OC(=O)C(C)C(O)C1C (stereo not shown) [19-Desaminocarbonyldiscodermolide (III), 19-desaminocarbonyldiscodermolide] | low levels | relatively stable | 30-50% | + | some microtubule bundling | moderate amount of microtubule bundling | 10-20 nM | 50-100 nM | ++ |  |  |  |  |
| CCCCC(C)C(OC(N)=O)C(C)C(O)C(C)CC(C)=CC(C)C(O)C(C)CCCCC1OC(=O)C(C)C(O)C1C (stereo not shown) [7-deoxy-8,21,23-hexahydrodiscodermolide] | low levels | relatively stable | 39% |  | small amount of microtubule bundling visible in some cells | strong microtubule bundling | ~10 nM | 100 nM |  | ++ | no visible effect on the microtubule matrix | ++ |  |
| C=CC=CC(C)C(OC(N)=O)C(C)C(O)C(C)CC(C)=CC(C)C(O)C(C)C=CC(O)CC1OC(=O)CC(O)C1C (stereo not shown) [2-Desmethyldiscodermolide (II), 2-desmethyldiscodermolide] | almost equivalent to those of the parent compound discodermolide | stable |  | ++ | Some thin or short peripheral microtubule bundling | extensive microtubule bundling | 20-50 nM | 1000 nM | +++ |  |  |  |  |
| C=C/C=C\[C@H](C)[C@H](OC(N)=O)[C@@H](C)[C@H](O)[C@@H](C)C/C(C)=C\[C@H](C)[C@@H](O)[C@@H](C)/C=C\[C@@H](O)C[C@@H]1OC(=O)[C@@H](C)[C@@H](O)[C@H]1C [2-Epidiscodermolide (IV), 2-epidiscodermolide] | low levels | relatively stable | 30-50% | ++ | no microtubule matrix bundling | Some minor, peripheral, polymerization of microtubule matrix |  | ~20 nM | + |  |  |  | less than 10% |
| CCCCC(C)C(OC(N)=O)C(C)C(O)C(C)CC(C)=CC(C)C(O)C(C)CCC(O)CC1OC(=O)C(C)C(O)C1C (stereo not shown) [8,21,23-Hexahydrodiscodermolide (XII), 8,21,23-hexahydrodiscodermolide] | strong | relatively stable | approximately 80% |  | Microtubule bundling was evident | Microtubule bundling was evident |  |  |  | +++ |  | ++ |  |

— patent US6495594B2, “Biologically active analogs of discodermolide” (Harbor Branch Oceanographic Institution, Inc., priority 2000, dated 2002)
